The compounds below were run against T1, human CCR6 (Homo sapiens, UniProt P51684) (assay: Migration (chemotaxis) assay, hCCR6-transfected Ba/F3 cells toward CCL20). Settings: hCCR6-transfected Ba/F3 cells in human serum; recombinant human CCL20 10 nM; 37° C. 45 minutes; read-out: Potency (IC50 value in the migration assay).
T1 construct: expressed in transfected cells; host or cells: Ba/F3 cells (murine pro-B line), hCCR6-transfected, CMV promoter, sodium butyrate induction
T1 sequence (P51684 1-374): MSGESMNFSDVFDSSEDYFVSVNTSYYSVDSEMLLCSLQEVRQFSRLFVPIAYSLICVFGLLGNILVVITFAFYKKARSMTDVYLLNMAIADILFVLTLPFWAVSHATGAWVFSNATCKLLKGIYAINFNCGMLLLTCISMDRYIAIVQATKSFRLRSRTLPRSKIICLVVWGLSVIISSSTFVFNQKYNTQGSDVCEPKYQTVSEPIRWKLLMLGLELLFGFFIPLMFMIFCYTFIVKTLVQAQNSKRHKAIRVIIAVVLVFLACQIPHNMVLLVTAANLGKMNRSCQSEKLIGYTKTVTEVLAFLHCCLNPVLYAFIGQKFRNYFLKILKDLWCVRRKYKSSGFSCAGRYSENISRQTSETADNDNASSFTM
Assay type: cell-based
Source text: A chemotaxis assay can be used to determine the efficacy of potential receptor antagonists at blocking the migration mediated through chemokine receptors, such as CCR6. This assay is routinely performed using the ChemoTX® microchamber system with a 5-μm pore-sized polycarbonate membrane. Chemokine receptor-expressing cells are required for such an assay. In this case, Ba/F3 cells (Palacios et al., Nature, 309:126, 1984) transfected with the gene for human CCR6 under control of the CMV promotor were used. To begin such an assay, hCCR6-transfected Ba/F3 cells are first grown for 24 hr in medium supplemented with sodium butyrate, which increases CCR6 transcription via the CMV promotor. The prepared Ba/F3 cells, are collected by centrifugation at 400×g at room temperature, then suspended at 4 million/ml in human serum. The compound being tested is serially diluted from a maximum final concentration of 10 μM (or an equivalent volume of its solvent (DMSO)) and is then added to the cell/serum mixture. Separately, recombinant human CCL20 (MIP-3α/LARC) at its EC50 concentration (10 nM) is placed in the lower wells of the ChemoTX® plate. The 5-μm (pore size) polycarbonate membrane is placed onto the plate, and 20 μL of the cell/compound mixture is transferred onto each well of the membrane. The plates are incubated at 37° C. for 45 minutes, after which the polycarbonate membranes are removed and 5 μl of the DNA-intercalating dye CyQUANT (Invitrogen, Carlsbad, CA) is added to the lower wells. The amount of fluorescence, corresponding to the number of migrated cells, is measured using a Spectrafluor Plus plate reader (TECAN, San Jose, CA).

| Compound | IC50 [nM] |
| --- | --- |
| O=C1NC[C@@H]2CCN(c3ccc(S(=O)(=O)N4CCC(Nc5ccc(C(F)(F)F)cn5)CC4)cc3)C[C@H]12 (racemic) [Example 1.169] | 100 to 10000 |
| O=C1CO[C@@H]2CCN(c3ccc(S(=O)(=O)N4CCC(Nc5ccc(C(F)(F)F)cn5)CC4)cc3)C[C@@H]2N1 (racemic) [Example 1.170] | 100 to 10000 |
| O=S(=O)(c1ccc(N2CCN3C[C@H](O)C[C@H]3C2)cc1)N1CCC(Nc2ccc(C(F)(F)F)cn2)CC1 (racemic) [Example 1.178] | 100 to 10000 |
| CN(C)CCn1cc(C#N)c2cc(-c3ccc(S(=O)(=O)N4CCC(Nc5ccc(C(F)(F)F)cn5)CC4)cc3)cnc21 [Example 1.001] | 5 to 100 |
| NCCN1C(=O)C2(CC2)c2cc(-c3ccc(S(=O)(=O)N4CCC(Nc5ccc(C(F)(F)F)cn5)CC4)cc3)cnc21 [Example 1.002] | 5 to 100 |
| N#Cc1cn(CCNC(N)=O)c2ncc(-c3ccc(S(=O)(=O)N4CCC(Nc5ccc(C(F)(F)F)cn5)CC4)cc3)cc12 [Example 1.003] | < 5 |
| CC(C)(C)OC(=O)NCCN1C(=O)C2(CC2)c2cc(-c3ccc(S(=O)(=O)N4CCC(Nc5ccc(C(F)(F)F)cn5)CC4)cc3)cnc21 [Example 1.004] | 5 to 100 |
| NC(=O)c1cc(-c2ccc(S(=O)(=O)N3CCC(Nc4ccc(C(F)(F)F)cn4)CC3)cc2)cc2c1NC(=O)C2 [Example 1.005] | < 5 |
| CN1CCC2(CC1)C(=O)Nc1ccc(-c3ccc(S(=O)(=O)N4CCC(Nc5ccc(C(F)(F)F)cn5)CC4)cc3)cc12 [Example 1.006] | 100 to 10000 |
| O=C1Cc2ccc(-c3ccc(S(=O)(=O)N4CCC(Nc5ccc(C(F)(F)F)cn5)CC4)cc3)cc2CN1 [Example 1.007] | 5 to 100 |
| O=C1Cc2cc(-c3ccc(S(=O)(=O)N4CCC(Nc5ccc(C(F)(F)F)cn5)CC4)cc3)cc(C(=O)O)c2N1 [Example 1.008] | 100 to 10000 |
| CC1(C)NC(=O)c2ncc(-c3ccc(S(=O)(=O)N4CCC(Nc5ccc(C(F)(F)F)cn5)CC4)cc3)cc21 [Example 1.009] | < 5 |
| O=C1NCc2ncc(-c3ccc(S(=O)(=O)N4CCC(Nc5ccc(C(F)(F)F)cn5)CC4)cc3)cc21 [Example 1.010] | 5 to 100 |
| CC(=O)NCCn1cc(C#N)c2cc(-c3ccc(S(=O)(=O)N4CCC(Nc5ccc(C(F)(F)F)cn5)CC4)cc3)cnc21 [Example 1.011] | < 5 |
| O=C1Cc2cc(-c3ccc(S(=O)(=O)N4CCC(Nc5ccc(C(F)(F)F)cn5)CC4)cc3)ccc2CN1 [Example 1.012] | < 5 |
| N#Cc1cn(CCN)c2ncc(-c3ccc(S(=O)(=O)N4CCC(Nc5ccc(C(F)(F)F)cn5)CC4)cc3)cc12 [Example 1.013] | 5 to 100 |
| CC(C)(C)OC(=O)NCCn1cc(C#N)c2cc(-c3ccc(S(=O)(=O)N4CCC(Nc5ccc(C(F)(F)F)cn5)CC4)cc3)cnc21 [Example 1.014] | < 5 |
| Nc1nc(=O)c2cc(-c3ccc(S(=O)(=O)N4CCC(Nc5ccc(C(F)(F)F)cn5)CC4)cc3)ccc2[nH]1 [Example 1.015] | < 5 |
| Nc1nnc2ccc(-c3ccc(S(=O)(=O)N4CCC(Nc5ccc(C(F)(F)F)cn5)CC4)cc3)cn12 [Example 1.016] | < 5 |
| Nc1n[nH]c2ncc(-c3ccc(S(=O)(=O)N4CCC(Nc5ccc(C(F)(F)F)cn5)CC4)cc3)nc12 [Example 1.017] | 5 to 100 |
| Cc1cc(S(=O)(=O)N2CCC(Nc3ccc(C(F)(F)F)cn3)CC2)ccc1-c1ccc2c(c1)CC(=O)N2 [Example 1.018] | 100 to 10000 |
| CC1(C)Oc2cc(-c3ccc(S(=O)(=O)N4CCC(Nc5ccc(C(F)(F)F)cn5)CC4)cc3)ccc2NC1=O [Example 1.019] | 5 to 100 |
| O=C1N(CCO)c2ncc(-c3ccc(S(=O)(=O)N4CCC(Nc5ccc(C(F)(F)F)cn5)CC4)cc3)cc2C12CCOCC2 [Example 1.020] | 5 to 100 |
| O=C1c2ccc(-c3ccc(S(=O)(=O)N4CCC(Nc5ccc(C(F)(F)F)cn5)CC4)cc3)cc2CN1CCO [Example 1.021] | 5 to 100 |
| O=C1Cc2ncc(-c3ccc(S(=O)(=O)N4CCC(Nc5ccc(C(F)(F)F)cn5)CC4)cc3)cc2N1 [Example 1.022] | 5 to 100 |

— patent US12012403B2, “Aryl sulfonyl compounds as CCR6 inhibitors” (CHEMOCENTRYX, INC., priority 2021, dated 2024)
